Patent publication US9526680B2, “Method for searching for malodor control agent, malodor control agent, and malodor control method” (Kao Corporation, priority 2010, dated 2016)

Assays:
OR2W1 = target: T1, OR2W1 (Homo sapiens, UniProt Q9Y3N9); experiment: Luciferase reporter gene assay, OR2W1 expressed in HEK293 cells; assay type: cell-based; settings: for Inhibition ratio of OR2W1 response: response to hexanoic acid, test substance added together with hexanoic acid, HEK293
T1 construct: expressed in transfected cells; host or cells: HEK293
T1 sequence (Q9Y3N9 1-320): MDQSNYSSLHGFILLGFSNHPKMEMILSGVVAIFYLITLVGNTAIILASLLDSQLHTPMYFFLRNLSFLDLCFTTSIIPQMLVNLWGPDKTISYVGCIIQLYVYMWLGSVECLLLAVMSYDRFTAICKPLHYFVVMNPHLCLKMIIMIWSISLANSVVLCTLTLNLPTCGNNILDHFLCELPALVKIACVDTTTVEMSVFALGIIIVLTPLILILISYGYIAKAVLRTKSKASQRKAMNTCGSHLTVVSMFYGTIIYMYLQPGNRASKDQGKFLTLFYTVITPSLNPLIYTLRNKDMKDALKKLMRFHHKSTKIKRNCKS
Description: (§1) Cloning of human olfactory receptors was performed based on the sequence information registered in GenBank, through PCR with human genomic DNA female (G1521: Promega) as a template. Each of the genes amplified through PCR was inserted into a pENTR vector (Invitrogen) according to an instruction manual. Then, the gene-inserted vector was digested with NotI and AscI, and the obtained fragments were inserted into NotI and AscI sites located downstream of the Flag-Rho tag sequence in the pME18S vector.
(§2) Each of the 350 types of human olfactory receptors was expressed in HEK293 cells. A reaction solution having a composition shown in Table 2 was prepared on a clean bench, and left to stand for 15 minutes. The solution was dispensed to each well of a 96-well plate (BD). Subsequently, […] cells (100 μL, 3×10^5 cells/cm^2) were seeded in each well and cultured for 24 hours in an incubator at 37° C. and under 5% CO2 conditions.
(§3) The olfactory receptor expressed in HEK293 cell was conjugated with cell-intrinsic Gas to activate adenylate cyclase, and thereby the level of intracellular cAMP was increased. For the measurement of the response to odor in this study, the luciferase reporter gene assay was used, in which an increase in the amount of intracellular cAMP was monitored by using the emission value originating from firefly luciferase gene (fluc2P-CRE-hygro) as an indicator. Furthermore, a gene product obtained by fusing renilla luciferase gene in the downstream of CMV promoter (hRluc-CMV) was simultaneously introduced, and this was used as an internal standard for correcting an error in the transgenesis efficiency or the number of cells. The medium was removed from the culture prepared in the above-described section 3) by using a Pipetman, and 75 μl of a solution containing an odor substance (1 mM hexanoic acid or 300 μM nonanoic acid) prepared in CD293 medium (Invitrogen) was added thereto. The cells were cultured for 4 hours in a CO2 incubator, and the luciferase gene was sufficiently expressed in the cells. For the measurement of luciferase activity, the measurement was carried out by using a Dual-Glo™ luciferase assay system (Promega) according to the operation manual of the product. A value calculated by dividing the emission value, derived from a firefly luciferase induced by the stimulation with an odor substance, by the emission value in cells that were not-stimulated with an odor substance, was designated as a fold increase, and used as an index of response intensity.
(§4) OR2W1, OR10A6, OR51E1, OR51I2, and OR51L1 were respectively expressed in HEK293 cells by the same method as that used in Example 1, and a luciferase assay was carried out. In the luciferase assay, hexanoic acid was used as the odorous substance, and test substances were added together with hexanoic acid. The response of the olfactory receptors to hexanoic acid was measured, and a decrease in the receptor response to the addition of test substances was evaluated.
(§5) The inhibition ratios of the receptor response to test substances were calculated as follows. The emission value (Y) obtained from the cells in which the same receptors were introduced but no odor stimulation was conducted, was subtracted from the emission value derived from firefly luciferase (X) induced by odor stimulation with hexanoic acid alone. Similarly, the emission value (Y) obtained from the cells in which no odor stimulation was conducted, was subtracted from the emission value (Z) caused by stimulation with a mixture of hexanoic acid and a test substance. By the following calculation formula, the inhibitory activity of the test substance to receptor response was calculated based on the increment of the emission value (X−Y) caused by stimulation of hexanoic acid alone. Multiple independent experiments were performed in duplicate, and the average of each experiment was obtained. Inhibition ratio (%)={1−(Z−Y)/(X−Y)}×100 […]

[1] = Sensory evaluation test of hexanoic acid odor inhibition; assay type: in vivo; settings: for Intensity of odor: hexanoic acid odor, malodor alone rated as 5, 0 to 10 points, test substance diluted 100 times with propylene glycol, three panelists; for Inhibition of hexanoic acid odor (in words): sensory test, test substance diluted 100 times with propylene glycol (FIG. 5, Table 4)
Description: Cotton balls were introduced into a glass bottle (Hakuyo Glass Co., Ltd. No. 11, capacity 110 ml), and hexanoic acid diluted 100 times with propylene glycol, nonanoic acid diluted 10 times with propylene glycol, or isovaleric acid diluted 1000 times with propylene glycol, as a malodor, and a test substance were added dropwise in an amount of […] to the cotton balls. The glass bottle was left to stand overnight at room temperature, and the odor molecules were sufficiently volatilized in the glass bottle. A sensory evaluation test was carried out by a panel of three panelists (5 panelists for isovaleric acid), and while the intensity of odor in the case of adding dropwise the malodor alone was rated as 5, the intensity of the malodor in the case of incorporating a test substance was evaluated on the basis of a system of 20 grades from 0 point to 10 points (0.5 points per grade).
Regarding the test substance, florhydral (Givaudan SA), bourgeonal (Givaudan SA), hydroxycitronellal (Givaudan SA, International Flavors & Fragrances, Inc., and the like), 4-isopropylcyclohexanecarbaldehyde (synthesized according to a method described in JP-A-2-188549), 4-(2-methoxyphenyl)-2-methyl-2-butanol (JP-A-9-111281), florosa (Givaudan SA), isocyclocitral (Givaudan SA, International Flavors & Fragrances, Inc., and the like), tripral (International Flavors & Fragrances, Inc.), and Pollenal II (Kao Corp.), which had been diluted 100 times with propylene glycol, were used for hexanoic acid; florhydral that had been diluted 10 times with propylene glycol was used for nonanoic acid; and florhydral that had been diluted 1000 times with propylene glycol was used for isovaleric acid.

OR51L1 = target: T2, OR51L1 (Homo sapiens, UniProt Q8NGJ5); experiment: Luciferase reporter gene assay, OR51L1 expressed in HEK293 cells; assay type: cell-based; settings: for Inhibition ratio of OR51L1 response: response to hexanoic acid, test substance added together with hexanoic acid, HEK293
T2 construct: expressed in transfected cells; host or cells: HEK293
T2 sequence (Q8NGJ5 1-315): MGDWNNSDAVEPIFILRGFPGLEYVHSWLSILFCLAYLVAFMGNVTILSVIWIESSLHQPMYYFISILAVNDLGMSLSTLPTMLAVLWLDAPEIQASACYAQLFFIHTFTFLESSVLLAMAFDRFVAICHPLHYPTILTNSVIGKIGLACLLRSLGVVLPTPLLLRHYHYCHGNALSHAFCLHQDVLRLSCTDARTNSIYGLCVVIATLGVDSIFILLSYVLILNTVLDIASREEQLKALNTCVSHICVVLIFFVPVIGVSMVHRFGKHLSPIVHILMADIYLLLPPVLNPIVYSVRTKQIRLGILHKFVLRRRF
Description: as §1, §2, §3, §4, §5

[2] = 1 mM hexanoic acid, test substance 3, 10, 30, 100, 300 μM (FIG. 4)

## 2,4,6-trimethyl-3-cyclohexene-1-carboxyaldehyde, 3,5,6-trimethyl-3-cyclohexene-1-carboxyaldehyde [Isocyclocitral]
OR2W1
  Inhibition ratio of OR2W1 response: 1 (Inhibition ratio: 50% or higher)
[1]
  Intensity of odor: 0.67
  Inhibition of hexanoic acid odor (in words): inhibit the hexanoic acid odor
OR51L1
  Inhibition ratio of OR51L1 response: 1 (Inhibition ratio: 50% or higher)

## CC(C)c1cccc(C(C)CC=O)c1 (stereo not shown) [Florhydral, 3-(3-isopropylphenyl)-butyraldehyde]
OR2W1; [2]
  Inhibition of OR2W1 response to hexanoic acid (in words): in a concentration-dependent manner
OR2W1
  Inhibition ratio of OR2W1 response: 1 (Inhibition ratio: 50% or higher)
[1]
  Intensity of odor: 1.25
  Inhibition of hexanoic acid odor (in words): markedly inhibited
OR51L1; [2]
  Inhibition of OR51L1 response to hexanoic acid (in words): in a concentration-dependent manner
OR51L1
  Inhibition ratio of OR51L1 response: 1 (Inhibition ratio: 50% or higher)
